Source: patent US20250092017A1, “2-PIPERIDYL OR 2-PYRAZOLYL SUBSTITUTED PYRIMIDINE COMPOUND SERVING AS EGFR INHIBITOR” (SUZHOU PUHE BIOPHARMA CO., LTD., priority 2022, published 2025)

Legend:
[1] = system: BaF3 (del19/T790M1C797S) tumor cells; experiment: In vivo efficacy assay in BALB/c nude mice, subcutaneous BaF3 tumor; details: 100 mg/kg BID oral (50 mg/kg for the first 4 days, 100 mg/kg from the 5th day), after 13 days
Protocol: In vivo efficacy assay in BALB/c nude mice. Details were as follows:
BaF3 (del19/T790M1C797S) tumor cells were cultured and inoculated into 6-8 weeks old female BALB/c nude mice (weighing about 20 g), with all mice being subcutaneously inoculated. The mice were cultured in an SPF-grade experimental environment, and all mice had free access to commercially certified standard diets. When the average tumor volume of the mice grew to about 150 mm^3, the test compound was orally administered daily. The dosage was as follows: blank group vehicle (DMSO/Solutol/H2O, 5/10/85). […] The tumor volume was measured three times a week with a two-dimensional caliper, and the animals were weighed every day. […] The volume calculation formula is: V=1/2a*b^2, where a represents the long diameter of the tumor, and b represents the short diameter of the tumor.

[2] = target: T1, Ba/F3-TEL-EGFR-L858R-C797S (Homo sapiens, UniProt P00533, C797S/L858R, cells depend on it); experiment: CellTiter-Glo proliferation, Ba/F3-TEL-EGFR-L858R-C797S; assay type: cell-based; details: 72 hours, read-out: Ba/F3-TEL-EGFR-L858R-C797S IC50/nM
T1 construct: fused on or other part: N-terminal TEL (ETV6) oligomerising part fused to the EGFR intracellular/kinase part; P41212 (Transcription factor ETV6)
Outline: (§1)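 Ba/F3 lines dependent on the indicated EGFR variants were treated with compounds at a final DMSO concentration of 0.1% at 37 °C, 5% CO2. Viability was read by CellTiter-Glo luminescence, and inhibition rate was normalised to DMSO-treated cells (max) and medium-only wells (min). IC50 came from inhibition curves.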

[3] = Liver microsome stability test, human; assay type: in vitro ADME; details: human liver microsomes 0.5 mg/ml, compound 1 μM, NADPH 1 mM, within 60 minutes
Protocol: (§2) The compounds of the present disclosure were subjected to a liver microsome stability test. The compounds to be tested were co-incubated with liver microsomes of different species with or without the addition of NADPH. The final concentration of the compounds to be tested in the test system was 1 μM. The final concentration of NADPH was 1 mM, and the final concentration of liver microsomes was 0.5 mg/ml.

Ba/F3-FL-EGFR = target: T2, Ba/F3-FL-EGFR (Homo sapiens, UniProt P00533); experiment: CellTiter-Glo proliferation, Ba/F3-FL-EGFR; assay type: cell-based; details: 72 hours, read-out: Ba/F3-FL-EGFR IC50/nM
T2 construct: FL read as full length
T2 sequence (P00533 whole entry, change not shown): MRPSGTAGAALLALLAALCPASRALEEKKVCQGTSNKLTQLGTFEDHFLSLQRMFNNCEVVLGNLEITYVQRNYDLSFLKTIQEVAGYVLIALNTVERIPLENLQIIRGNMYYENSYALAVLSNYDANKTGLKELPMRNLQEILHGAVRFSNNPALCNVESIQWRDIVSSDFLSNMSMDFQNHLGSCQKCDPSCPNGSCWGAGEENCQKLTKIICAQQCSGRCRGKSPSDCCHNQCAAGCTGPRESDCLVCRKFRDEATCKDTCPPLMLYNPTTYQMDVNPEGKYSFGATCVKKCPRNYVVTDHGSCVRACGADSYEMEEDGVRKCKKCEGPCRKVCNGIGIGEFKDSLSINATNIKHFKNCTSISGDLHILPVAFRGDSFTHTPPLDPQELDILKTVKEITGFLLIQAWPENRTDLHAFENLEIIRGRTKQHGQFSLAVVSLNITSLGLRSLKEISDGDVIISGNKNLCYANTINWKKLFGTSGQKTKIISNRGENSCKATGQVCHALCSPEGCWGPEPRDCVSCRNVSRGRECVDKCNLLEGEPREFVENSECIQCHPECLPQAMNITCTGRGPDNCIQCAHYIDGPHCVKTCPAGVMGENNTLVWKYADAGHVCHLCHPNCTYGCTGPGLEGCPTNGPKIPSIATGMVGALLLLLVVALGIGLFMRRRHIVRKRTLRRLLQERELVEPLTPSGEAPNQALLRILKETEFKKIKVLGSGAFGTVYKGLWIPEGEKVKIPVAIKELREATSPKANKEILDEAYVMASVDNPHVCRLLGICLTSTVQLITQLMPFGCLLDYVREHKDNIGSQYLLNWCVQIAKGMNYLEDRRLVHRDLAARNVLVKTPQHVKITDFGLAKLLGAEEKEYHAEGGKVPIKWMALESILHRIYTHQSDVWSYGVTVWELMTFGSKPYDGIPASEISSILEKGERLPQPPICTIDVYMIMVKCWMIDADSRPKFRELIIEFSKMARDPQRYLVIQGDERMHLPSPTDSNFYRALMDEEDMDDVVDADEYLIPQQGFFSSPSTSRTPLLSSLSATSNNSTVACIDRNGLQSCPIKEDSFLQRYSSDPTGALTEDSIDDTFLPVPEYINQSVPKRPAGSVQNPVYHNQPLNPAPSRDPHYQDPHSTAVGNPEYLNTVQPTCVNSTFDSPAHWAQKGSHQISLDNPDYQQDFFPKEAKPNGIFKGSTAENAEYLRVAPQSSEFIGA
Outline: as §1

[4] = system: Ba/F3-FL-EGFR-del19-C797S; experiment: CellTiter-Glo proliferation, Ba/F3-FL-EGFR-del19-C797S; assay type: cell-based; details: 72 h, proliferation, 72 hours, CellTiter-Glo; read-out: Ba/F3-FL-EGFR-del19-C797S IC50/nM
Outline: as §1

[5] = target: Ba/F3-FL-EGFR-L858R-T790M-C797S (Homo sapiens, UniProt P00533, T790M/C797S/L858R, cells depend on it); experiment: CellTiter-Glo proliferation, Ba/F3-FL-EGFR-L858R-T790M-C797S; assay type: cell-based; details: 72 hours, read-out: Ba/F3-FL-EGFR-L858R-T790M-C797S IC50/nM
Ba/F3-FL-EGFR-L858R-T790M-C797S, sequence (P00533 whole entry T790M/C797S/L858R): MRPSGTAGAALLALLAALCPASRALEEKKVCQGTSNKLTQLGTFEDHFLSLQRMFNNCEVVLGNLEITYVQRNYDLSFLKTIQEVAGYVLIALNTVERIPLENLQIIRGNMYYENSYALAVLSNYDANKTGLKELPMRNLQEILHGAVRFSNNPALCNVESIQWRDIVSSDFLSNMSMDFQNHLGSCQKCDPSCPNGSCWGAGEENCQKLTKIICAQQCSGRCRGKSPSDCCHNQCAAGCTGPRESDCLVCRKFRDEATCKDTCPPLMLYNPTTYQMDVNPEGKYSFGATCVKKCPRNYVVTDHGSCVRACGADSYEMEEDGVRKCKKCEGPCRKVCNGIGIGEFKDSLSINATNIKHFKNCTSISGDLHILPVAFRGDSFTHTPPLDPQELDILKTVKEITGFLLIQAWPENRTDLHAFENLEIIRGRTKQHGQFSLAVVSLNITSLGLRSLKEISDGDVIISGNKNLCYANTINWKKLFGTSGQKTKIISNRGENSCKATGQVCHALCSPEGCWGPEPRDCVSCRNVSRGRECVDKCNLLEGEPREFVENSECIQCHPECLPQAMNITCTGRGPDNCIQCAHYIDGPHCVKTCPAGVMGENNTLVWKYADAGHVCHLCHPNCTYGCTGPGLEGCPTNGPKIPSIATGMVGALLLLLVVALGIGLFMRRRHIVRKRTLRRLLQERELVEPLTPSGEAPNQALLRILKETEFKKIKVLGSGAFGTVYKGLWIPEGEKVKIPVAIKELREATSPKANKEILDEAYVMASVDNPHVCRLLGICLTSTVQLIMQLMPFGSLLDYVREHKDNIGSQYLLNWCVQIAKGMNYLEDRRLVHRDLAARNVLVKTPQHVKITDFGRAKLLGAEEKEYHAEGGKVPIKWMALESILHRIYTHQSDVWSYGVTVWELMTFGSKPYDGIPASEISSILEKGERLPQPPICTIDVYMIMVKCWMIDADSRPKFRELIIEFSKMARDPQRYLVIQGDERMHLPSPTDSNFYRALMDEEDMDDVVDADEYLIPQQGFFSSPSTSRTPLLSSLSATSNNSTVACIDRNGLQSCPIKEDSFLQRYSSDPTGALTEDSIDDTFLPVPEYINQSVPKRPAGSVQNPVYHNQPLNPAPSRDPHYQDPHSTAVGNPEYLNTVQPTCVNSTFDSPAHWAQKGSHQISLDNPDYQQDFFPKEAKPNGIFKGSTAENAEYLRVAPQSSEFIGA
Outline: as §1

[6] = target: Ba/F3-FL-EGFR-del19-T790M-C797S (Homo sapiens, UniProt P00533, DEL746-750/T790M/C797S, cells depend on it); experiment: CellTiter-Glo proliferation, Ba/F3-FL-EGFR-del19-T790M-C797S; assay type: cell-based; details: 72 hours, read-out: Ba/F3-FL-EGFR-del19-T790M-C797S IC50/nM
Protocol: Promega CellTiter-Glo reagent was used to detect the effects of small molecule inhibitors on the proliferation of three Ba/F3 cell lines (Ba/F3-FL-EGFR-de119, Ba/F3-FL-EGFR-de119-T790M, Ba/F3-FL-EGFR-de119-T790M-C797S).
The cell lines were cultured in an incubator at 37° C. and 5% CO2. Cells were passaged regularly and cells in the logarithmic phase were used for plating. 95 μL of cell suspension was added to each well of the cell plate, and culture medium without cells (containing 0.1% DMSO) was added to the Min control wells. Substance addition for compound detection cell plate: 5 μL of 20× compound working solution was added to the cell culture plate. 5 μL of DMSO-cell culture medium mixture was added to the Max control, with the final DMSO concentration of 0.1%. 5 μL of DMSO-cell culture medium mixture was added to the Max control. The final DMSO concentration was 0.1%.
Cell viability was detected by CellTiter-Glo luminescence assay. Data analysis:
The cell proliferation inhibition rate (Inhibition Rate) data was processed using the following formula: […]
wherein: RLUDrug represents the relative luminescence unit of the cells with the addition of drug, RLUMin represents the luminescence unit of the culture medium, and RLUMax represents the relative luminescence unit of the cells with the addition of DMSO.
The inhibition rates corresponding to different concentrations of compounds were calculated in EXCEL, and then the inhibition rate curve was plotted using GraphPad Prism software and related parameters including the maximum and minimum inhibition rates of cells and IC50 values were calculated.

Ba/F3-FL-EGFR-L858R = Ba/F3-FL-EGFR-L858R (Homo sapiens, UniProt P00533, L858R, cells depend on it); experiment: CellTiter-Glo proliferation, Ba/F3-FL-EGFR-L858R; assay type: cell-based; details: 72 hours, read-out: Ba/F3-FL-EGFR-L858R IC50/nM
Ba/F3-FL-EGFR-L858R, sequence (P00533 whole entry L858R): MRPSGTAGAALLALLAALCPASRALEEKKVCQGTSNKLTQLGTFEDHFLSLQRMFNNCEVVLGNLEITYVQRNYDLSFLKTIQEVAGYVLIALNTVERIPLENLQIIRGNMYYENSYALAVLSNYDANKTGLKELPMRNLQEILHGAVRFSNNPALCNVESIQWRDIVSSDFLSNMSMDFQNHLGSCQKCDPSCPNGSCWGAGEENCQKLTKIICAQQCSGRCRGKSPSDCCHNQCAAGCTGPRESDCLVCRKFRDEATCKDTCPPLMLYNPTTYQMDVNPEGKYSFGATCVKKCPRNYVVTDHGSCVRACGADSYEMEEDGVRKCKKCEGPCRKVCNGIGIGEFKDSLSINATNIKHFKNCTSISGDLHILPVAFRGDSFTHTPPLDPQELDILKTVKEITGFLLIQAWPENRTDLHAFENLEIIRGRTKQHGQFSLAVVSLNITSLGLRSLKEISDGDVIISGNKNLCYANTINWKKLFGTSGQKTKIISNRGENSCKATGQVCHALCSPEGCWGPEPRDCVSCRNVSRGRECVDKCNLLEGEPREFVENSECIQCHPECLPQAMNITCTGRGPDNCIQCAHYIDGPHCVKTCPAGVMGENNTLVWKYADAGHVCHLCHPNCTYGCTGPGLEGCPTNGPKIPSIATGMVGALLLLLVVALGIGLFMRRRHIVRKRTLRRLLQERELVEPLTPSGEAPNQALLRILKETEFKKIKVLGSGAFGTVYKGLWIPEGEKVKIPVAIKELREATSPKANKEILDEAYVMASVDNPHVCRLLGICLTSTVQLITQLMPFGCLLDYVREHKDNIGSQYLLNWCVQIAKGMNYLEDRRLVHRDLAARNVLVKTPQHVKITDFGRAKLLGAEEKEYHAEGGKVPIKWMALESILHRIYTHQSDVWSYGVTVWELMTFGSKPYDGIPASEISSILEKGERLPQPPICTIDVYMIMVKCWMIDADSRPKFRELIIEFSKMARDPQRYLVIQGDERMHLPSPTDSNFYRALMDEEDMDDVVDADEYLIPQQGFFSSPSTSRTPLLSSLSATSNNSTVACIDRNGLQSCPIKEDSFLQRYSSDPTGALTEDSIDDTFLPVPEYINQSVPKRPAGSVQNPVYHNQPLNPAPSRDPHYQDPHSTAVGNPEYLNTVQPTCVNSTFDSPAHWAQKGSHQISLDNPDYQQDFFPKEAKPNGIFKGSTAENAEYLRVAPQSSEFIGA
Outline: as §1

[7] = target: Ba/F3-FL-EGFR-Del19 (E746-A750) (Homo sapiens, UniProt P00533, DEL746-750, cells depend on it); experiment: CellTiter-Glo proliferation, Ba/F3-FL-EGFR-Del19; details: read-out: Ba/F3-FL-EGFR-Del19 (E746-A750), 72 hours
[8] = target: Ba/F3-FL-EGFR-del19/T790M (Homo sapiens, UniProt P00533, DEL746-750/T790M, cells depend on it); experiment: CellTiter-Glo proliferation, Ba/F3-FL-EGFR-del19/T790M; details: read-out: Ba/F3-FL-EGFR-del19/T790M IC50/nM, 72 hours
Ba/F3-FL-EGFR-del19/T790M, sequence (P00533 with tags, fused parts or gaps DEL746-750/T790M): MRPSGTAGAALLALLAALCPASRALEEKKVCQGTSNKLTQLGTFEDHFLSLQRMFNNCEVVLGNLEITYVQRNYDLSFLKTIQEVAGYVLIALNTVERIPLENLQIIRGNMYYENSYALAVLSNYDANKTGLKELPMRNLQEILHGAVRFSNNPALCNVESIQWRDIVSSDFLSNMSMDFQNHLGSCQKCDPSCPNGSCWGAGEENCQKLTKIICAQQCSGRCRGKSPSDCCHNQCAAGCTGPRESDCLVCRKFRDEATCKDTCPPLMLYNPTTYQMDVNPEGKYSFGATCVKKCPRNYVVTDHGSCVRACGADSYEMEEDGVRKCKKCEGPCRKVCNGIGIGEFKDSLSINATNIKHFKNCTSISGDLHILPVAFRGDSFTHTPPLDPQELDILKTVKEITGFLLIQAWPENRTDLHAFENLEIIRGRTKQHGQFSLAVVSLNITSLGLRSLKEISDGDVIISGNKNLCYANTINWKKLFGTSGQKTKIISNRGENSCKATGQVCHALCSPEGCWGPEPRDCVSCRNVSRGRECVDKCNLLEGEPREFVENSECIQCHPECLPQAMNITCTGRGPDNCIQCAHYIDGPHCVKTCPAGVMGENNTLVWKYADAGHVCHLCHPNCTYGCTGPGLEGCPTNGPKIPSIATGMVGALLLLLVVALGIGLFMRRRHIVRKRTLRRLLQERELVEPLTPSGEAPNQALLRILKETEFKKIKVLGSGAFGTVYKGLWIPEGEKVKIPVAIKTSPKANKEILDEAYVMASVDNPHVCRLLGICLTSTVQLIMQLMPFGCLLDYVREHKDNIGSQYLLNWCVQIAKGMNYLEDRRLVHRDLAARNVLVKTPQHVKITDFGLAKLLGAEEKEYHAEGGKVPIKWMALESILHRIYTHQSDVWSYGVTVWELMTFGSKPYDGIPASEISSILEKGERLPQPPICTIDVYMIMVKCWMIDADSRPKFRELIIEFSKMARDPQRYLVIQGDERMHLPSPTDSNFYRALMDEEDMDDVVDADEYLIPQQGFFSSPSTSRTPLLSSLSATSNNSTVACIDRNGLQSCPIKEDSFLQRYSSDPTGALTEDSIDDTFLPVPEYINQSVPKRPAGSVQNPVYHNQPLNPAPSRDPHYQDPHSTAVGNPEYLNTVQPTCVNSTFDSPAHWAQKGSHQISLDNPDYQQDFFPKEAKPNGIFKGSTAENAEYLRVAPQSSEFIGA

[9] = Liver microsome stability test, mouse; assay type: in vitro ADME; details: mouse liver microsomes 0.5 mg/ml, compound 1 μM, NADPH 1 mM, within 60 minutes
Protocol: as §2

GI50 [2]: 4.3 nM
CLint scaled at 1 μM [3]: < 8.6 mL/min/kg
GI50 (Ba/F3-FL-EGFR): 121 nM
IC50 [4]: 3.1 nM
GI50 [5]: 10 nM
GI50 [6]: 3.1 nM
GI50 (Ba/F3-FL-EGFR-L858R): 3.7 nM
GI50 [7]: 3.1 nM
GI50 [8]: 0.3 nM
CLint scaled at 1 μM [9]: 448 mL/min/kg
Structure (SMILES): CC(C)c1ccc(N2C[C@H](N(C)S(C)(=O)=O)[C@H]2C)c2cnc(Nc3ccnc(-c4cnn(S(=O)(=O)C5CC5)c4)n3)cc12 [Compound H23]
Tumor volume (mm^3) [1]: 28 mm^3
TGI ([1]; based on final tumor volume): 103%
